Reference: the supplement of paper PMC10307832

Legend:
Assay in all cases: relative viability (nuclei count vs DMSO), 5 days (fraction); higher = more cells survive
HCC-827 = system: HCC-827
Outline: (§1)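 Lung cancer cell lines were seeded in 1536-well plates and dosed by pin tool the next day, with either a single drug or a fixed anchor-drug dose combined with five library-drug doses (not always all listed) spaced in √10 steps. Five days later, one step fixed the cells and stained their nuclei (final 0.05% Triton X-100, 1% formaldehyde, 1 ug/ml Hoechst), and nuclei were counted on 4× images. Relative viability is the nuclei count in treated wells divided by the count in vehicle wells, and each value is the median of duplicate plates.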

COR-L23 = system: COR-L23
Outline: as §1

HCC-15 = system: HCC-15
Outline: as §1

HCC-44 = system: HCC-44
Outline: as §1

NCI-H596 = system: NCI-H596
Outline: as §1

BEN = system: BEN
Outline: as §1

NCI-H1650 = system: NCI-H1650
Outline: as §1

NCI-H1975 = system: NCI-H1975
Outline: as §1

NCI-H23 = system: NCI-H23
Outline: as §1

NCI-H1666 = system: NCI-H1666
Outline: as §1

A-427 = system: A-427
Outline: as §1

NCI-H650 = system: NCI-H650
Outline: as §1

NCI-H441 = system: NCI-H441
Outline: as §1

EKVX = system: EKVX
Outline: as §1

NCI-H1437 = system: NCI-H1437
Outline: as §1

HARA = system: HARA
Outline: as §1

NCI-H838 = system: NCI-H838
Outline: as §1

201T = system: 201T
Outline: as §1

NCI-H1792 = system: NCI-H1792
Outline: as §1

With `CCN(CC)CCCCNc1ncc2cc(-c3cc(OC)cc(OC)c3)c(NC(=O)NC(C)(C)C)nc2n1` + CC(C)C[C@H](NC(=O)[C@H](Cc1ccccc1)NC(=O)c1cnccn1)B(O)O [Bortezomib] (partner 0.002 µM) the relative viability (HCC-827; first compound 0.01 µM) was 1.07, the relative viability (HCC-827; first compound 0.03162 µM) was 1 and the relative viability (HCC-827; first compound 0.1 µM) was 1.09. The relative viability (HCC-827; first compound 0.3162 µM) was 1.04, the relative viability (HCC-827; first compound 1 µM) was 1.05 and the relative viability (COR-L23; first compound 0.01 µM) was 1.19. The relative viability (COR-L23; first compound 0.03162 µM) was 1.3, the relative viability (COR-L23; first compound 0.1 µM) was 1.13 and the relative viability (COR-L23; first compound 0.3162 µM) was 1.13. It also gave a relative viability (COR-L23; first compound 1 µM) of 1.01, a relative viability (HCC-15; first compound 0.01 µM) of 1.24 and a relative viability (HCC-15; first compound 0.03162 µM) of 1.06. The relative viability (HCC-15; first compound 0.1 µM) was 1.06, the relative viability (HCC-15; first compound 0.3162 µM) was 1.19 and the relative viability (HCC-15; first compound 1 µM) was 0.936. The relative viability (HCC-44; first compound 0.01 µM) was 0.908, the relative viability (HCC-44; first compound 0.03162 µM) was 0.883 and the relative viability (HCC-44; first compound 0.1 µM) was 1.08. It also gave a relative viability (HCC-44; first compound 0.3162 µM) of 1.03, a relative viability (HCC-44; first compound 1 µM) of 0.896 and a relative viability (NCI-H596; first compound 0.01 µM) of 0.976. The relative viability (NCI-H596; first compound 0.03162 µM) was 1.06, the relative viability (NCI-H596; first compound 0.1 µM) was 1.03 and the relative viability (NCI-H596; first compound 0.3162 µM) was 1.16. It also gave a relative viability (NCI-H596; first compound 1 µM) of 0.923, a relative viability (BEN; first compound 0.01 µM) of 0.819 and a relative viability (BEN; first compound 0.03162 µM) of 0.528. The relative viability (BEN; first compound 0.1 µM) was 1.03, the relative viability (BEN; first compound 0.3162 µM) was 0.766 and the relative viability (BEN; first compound 1 µM) was 0.715. The relative viability (NCI-H1650; first compound 0.01 µM) was 0.201, the relative viability (NCI-H1650; first compound 0.03162 µM) was 0.217 and the relative viability (NCI-H1650; first compound 0.1 µM) was 0.233. For the same compound, the relative viability (NCI-H1650; first compound 0.3162 µM) was 0.203, the relative viability (NCI-H1650; first compound 1 µM) was 0.197 and the relative viability (NCI-H1975; first compound 0.01 µM) was 0.442. For the same compound, the relative viability (NCI-H1975; first compound 0.03162 µM) was 0.375, the relative viability (NCI-H1975; first compound 0.1 µM) was 0.394 and the relative viability (NCI-H1975; first compound 0.3162 µM) was 0.451. The relative viability (NCI-H1975; first compound 1 µM) was 0.365, the relative viability (NCI-H23; first compound 0.01 µM) was 1.06 and the relative viability (NCI-H23; first compound 0.03162 µM) was 1.24. It also gave a relative viability (NCI-H23; first compound 0.1 µM) of 1.09, a relative viability (NCI-H23; first compound 0.3162 µM) of 1.21 and a relative viability (NCI-H23; first compound 1 µM) of 0.91. The relative viability (NCI-H1666; first compound 0.01 µM) was 0.74, the relative viability (NCI-H1666; first compound 0.03162 µM) was 0.848 and the relative viability (NCI-H1666; first compound 0.1 µM) was 0.837. It also gave a relative viability (NCI-H1666; first compound 0.3162 µM) of 0.724, a relative viability (NCI-H1666; first compound 1 µM) of 0.733 and a relative viability (A-427; first compound 0.01 µM) of 1.1. For the same compound, the relative viability (A-427; first compound 0.03162 µM) was 0.989, the relative viability (A-427; first compound 0.1 µM) was 1.12 and the relative viability (A-427; first compound 0.3162 µM) was 1.06. For the same compound, the relative viability (A-427; first compound 1 µM) was 0.913, the relative viability (NCI-H650; first compound 0.01 µM) was 0.701 and the relative viability (NCI-H650; first compound 0.03162 µM) was 0.787. It also gave a relative viability (NCI-H650; first compound 0.1 µM) of 1.1, a relative viability (NCI-H650; first compound 0.3162 µM) of 0.921 and a relative viability (NCI-H650; first compound 1 µM) of 0.678. For the same compound, the relative viability (NCI-H441; first compound 0.01 µM) was 0.475, the relative viability (NCI-H441; first compound 0.03162 µM) was 0.45 and the relative viability (NCI-H441; first compound 0.1 µM) was 0.817. It also gave a relative viability (NCI-H441; first compound 0.3162 µM) of 0.489, a relative viability (NCI-H441; first compound 1 µM) of 0.492 and a relative viability (EKVX; first compound 0.01 µM) of 1.15. It also gave a relative viability (EKVX; first compound 0.03162 µM) of 0.957, a relative viability (EKVX; first compound 0.1 µM) of 1.2 and a relative viability (EKVX; first compound 0.3162 µM) of 1.21. The relative viability (EKVX; first compound 1 µM) was 1.1, the relative viability (NCI-H1437; first compound 0.01 µM) was 0.536 and the relative viability (NCI-H1437; first compound 0.03162 µM) was 0.533. It also gave a relative viability (NCI-H1437; first compound 0.1 µM) of 0.593, a relative viability (NCI-H1437; first compound 0.3162 µM) of 0.554 and a relative viability (NCI-H1437; first compound 1 µM) of 0.472. It also gave a relative viability (HARA; first compound 0.01 µM) of 1.19, a relative viability (HARA; first compound 0.03162 µM) of 1.12 and a relative viability (HARA; first compound 0.1 µM) of 1.26. The relative viability (HARA; first compound 0.3162 µM) was 1.04, the relative viability (HARA; first compound 1 µM) was 0.882 and the relative viability (NCI-H838; first compound 0.01 µM) was 0.793. The relative viability (NCI-H838; first compound 0.03162 µM) was 0.732, the relative viability (NCI-H838; first compound 0.1 µM) was 0.96 and the relative viability (NCI-H838; first compound 0.3162 µM) was 0.9. It also gave a relative viability (NCI-H838; first compound 1 µM) of 0.579, a relative viability (201T; first compound 0.01 µM) of 1.03 and a relative viability (201T; first compound 0.03162 µM) of 1.14. The relative viability (201T; first compound 0.1 µM) was 1.14, the relative viability (201T; first compound 0.3162 µM) was 1.15 and the relative viability (201T; first compound 1 µM) was 0.976. It also gave a relative viability (NCI-H1792; first compound 0.01 µM) of 1.05, a relative viability (NCI-H1792; first compound 0.03162 µM) of 1.05 and a relative viability (NCI-H1792; first compound 0.1 µM) of 0.924. For the same compound, the relative viability (NCI-H1792; first compound 0.3162 µM) was 1.38 and the relative viability (NCI-H1792; first compound 1 µM) was 0.689.
